The results in this text go back to patent US12091425B2 (AMGEN INC., priority 2016, dated 2024).

Structures are written as SMILES.

The target of test [1] is T1, Mcl-1/Bim interaction, recombinant human Mcl-1 (171-327) (Homo sapiens, UniProt Q07820).
T1 construct: made in house
The test is described as follows: Cell free Mcl-1: Bim Affinity Assay (Mcl-1 HTRF). The test is classed as binding. Summed up: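 Biotin-Bim(51-76) peptide, TR-FRET readout, overnight incubation; IC50 from duplicate competition curves, 4-parameter fit.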
In general terms: Time-resolved FRET reads energy transfer from a long-lived donor to a nearby acceptor.

Test [2] deals with OPM-2 human multiple myeloma cell line. The test is described as follows: Cell Viability Assay (OPM-2 10 FBS). The test is classed as cell-based. The conditions noted are these: OPM-2 cells, CellTiter-Glo. Summed up: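 IC50 from 4-parameter logistic fit of CellTiter-Glo luminescence. 3000 cells/well, 10% FBS medium, serial compound dilutions, 16 h, 37 °C/5% CO2; read 25 min post-reagent.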
(ATP-based viability assays read luminescence as a measure of living cells.)

The mark [3] stands for this setting: cell free Mcl-1:Bim TR-FRET, recombinant human Mcl-1 (171-327).
[4] abbreviates: Homo sapiens, OPM-2, 16 h, 16 h.
The mark [5] stands for this setting: TR-FRET, 0.1 nM Mcl-1 (171-327), 0.05 nM biotin-Bim (51-76).
The mark [6] stands for this setting: Homo sapiens, OPM-2, 16 h, 16 h incubation.

T1 sequence (Q07820 171-327): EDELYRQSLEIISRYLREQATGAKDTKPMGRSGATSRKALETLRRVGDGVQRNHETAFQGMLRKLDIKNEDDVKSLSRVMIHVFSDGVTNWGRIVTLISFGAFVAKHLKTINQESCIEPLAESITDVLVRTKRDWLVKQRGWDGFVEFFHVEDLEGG

With `COCCO[C@H]1/C=C/C[C@H](C)[C@@H](C)S(=O)(=O)NC(=O)c2ccc3c(c2)N(C[C@@H]2CC[C@H]21)C[C@@]1(CCCc2cc(Cl)ccc21)CO3` [Example 719, (1S,3′R,6′R,7′S,8′E,11′S,12′R)-6-chloro-7′-(2-methoxyethoxy)-11′,12′-dimethyl-3,4-dihydro-2H,15′H-spiro[naphthalene-1,22′-[20]oxa[13]thia[1,14]diazatetracyclo[14.7.2.0^3,6.0^19,24]pentacosa[8,16,18,24]tetraen]-15′-one-13′, 13′-dioxide], the IC50 in test [1] (setting [3]) came out at 0.366 nM; in test [2] (setting [4]) it was 117 nM.

As for `CCN1[C@@H](C)CCC[C@H](O)[C@@H]2CC[C@H]2CN2C[C@@]3(CCCc4cc(Cl)ccc43)COc3ccc(cc32)C(=O)NS1(=O)=O` [Example 85, (1S,3′R,6′R,7′S,11′S)-6-chloro-12′-ethyl-7′-hydroxy-11′-methyl-3,4-dihydro-2H,15′H-spiro[naphthalene-1,22′-[20]oxa[13]thia[1,12,14]triazatetracyclo[14.7.2.0^3,6.0^19,24]pentacosa[16,18,24]trien]-15′-one 13′,13′-dioxide], the results for the half-maximal inhibitory concentration (IC50) in test [1] (setting [5]) and in test [2] (setting [4]) were 1.88 nM and 1910 nM, respectively.

With `C[C@@H]1CC/C=C/[C@H](OCc2ncn(C)n2)[C@@H]2CC[C@H]2CN2C[C@@]3(CCCc4cc(Cl)ccc43)COc3ccc(cc32)C(=O)NS1(=O)=O` [Example 410, (1S,3′R,6′R,7′S,8′E,12′R)-6-chloro-12′-methyl-7′-((l-methyl-1H-1,2,4-triazol-3-yl)methoxy)-3,4-dihydro-2H,15′H-spiro[naphthalene-1,22′-[20]oxa[13]thia[1,14]diazatetracyclo[14.7.2.0^3,6.0^19,24]pentacosa [8,16,18,24]tetraen]-15′-one 13′,13′-dioxide], the IC50 in test [1] (setting [5]) is 0.144 nM; in test [2] (setting [4]), 208 nM.

For the molecule `CC(=O)O[C@H]1/C=C/C[C@H]2CCCN2S(=O)(=O)NC(=O)c2ccc3c(c2)N(C[C@@H]2CC[C@H]21)C[C@@]1(CCCc2cc(Cl)ccc21)CO3` (single isomer, unassigned) [Example 348], the 50% inhibitory concentration (IC50) in test [1] (setting [5]) was 6.86 nM; in test [2] (setting [4]), 3560 nM.

As to `Cc1nnc(C[C@H]2CC/C=C/[C@H](O)[C@@H]3CC[C@H]3CN3C[C@@]4(CCCc5cc(Cl)ccc54)COc4ccc(cc43)C(=O)NS2(=O)=O)o1` (single isomer, unassigned) [Example 565], the IC50 in test [1] (setting [3]) is 0.61 nM; in test [2] (16 h), 12600 nM.

For the molecule `O=C1NS(=O)(=O)[C@@H]2COC[C@H]2C/C=C/[C@H](O)[C@@H]2CC[C@H]2CN2C[C@@]3(CCCc4cc(Cl)ccc43)COc3ccc1cc32` (single isomer, unassigned) [Example 1030], the IC50 in test [1] (setting [5]) was 0.195 nM; in test [2] (16 h incubation), 271 nM.

As for `CCN(CC)S(=O)(=O)CCN1CC/C=C/[C@H](O)[C@@H]2CC[C@H]2CN2C[C@@]3(CCCc4cc(Cl)ccc43)COc3ccc(cc32)C(=O)NS1(=O)=O` [Example 35, 2-((1S,3′R,6′R,7′S,8′E)-6-chloro-7′-hydroxy-13′,13′-dioxido-15′-oxo-3,4-dihydro-2H,12′H-spiro[naphthalene-1,22′-[20]oxa[13]thia[1,12,14]triazatetracyclo[14.7.2.0^3,6.0^19,24]pentacosa[8,16,18,24]tetraen]-12′-yl)-N,N-diethylethanesulfonamide], the IC50 was 1.55 nM in test [1] (setting [5]) and 1280 nM in test [2] (setting [4]).

On to `CC[C@@H]1CC/C=C/[C@H](OCCC(=O)O)[C@@H]2CC[C@H]2CN2C[C@@]3(CCCc4cc(Cl)ccc43)COc3ccc(cc32)C(=O)NS1(=O)=O` [Example 1008, 3-(((1S,3′R,6′R,7′S,8′E,12′R)-6-chloro-12′-ethyl-13′,13′-dioxido-15′-oxo-3,4-dihydro-2H-spiro[naphthalene-1,22′-[20]oxa[13]thia[1,14]diazatetracyclo[14.7.2.0^3,6.0^19,24]pentacosa [8,16,18,24]tetraen]-7′-yl)oxy)propanoic Acid], for which the IC50 in test [1] (setting [5]) is 0.232 nM; in test [2] (setting [6]), 5590 nM.

Turning to `C[C@@H]1COCCN1CCO[C@H]1/C=C/C[C@H](C)[C@@H](C)S(=O)(=O)NC(=O)c2ccc3c(c2)N(C[C@@H]2CC[C@H]21)C[C@@]1(CCCc2cc(Cl)ccc21)CO3` [Example 523, (1S,3′R,6′R,7′S,8′E,11′S,12′R)-6-chloro-11′,12′-dimethyl-7′-(2-((3R)-3-methyl-4-morpholinyl)ethoxy)-3,4-dihydro-2H,15′H-spiro[naphthalene-1,22′-[20]oxa[13]thia[1,14]diazatetracyclo[14.7.2.0^3,6.0^19,24]pentacosa [8,16,18,24]tetraen]-15′-one 13′,13′-dioxide], the IC50 in test [1] (setting [3]) stood at 1.82 nM; in test [2] (setting [4]), 232 nM.

In the case of `COCCCN1[C@@H](C)C/C=C\[C@H](O)[C@@H]2CC[C@H]2CN2C[C@@]3(CCCc4cc(Cl)ccc43)COc3ccc(cc32)C(=O)NS1(=O)=O` (single isomer, unassigned) [Example 73], the IC50 in test [1] (setting [5]) worked out at 0.728 nM; in test [2] (setting [4]), 1660 nM.

`CC[C@@H]1C[C@@H](C)/C=C/[C@H](OCCOC)[C@@H]2CC[C@H]2CN2C[C@@]3(CCCc4cc(Cl)ccc43)COc3ccc(cc32)C(=O)NS1(=O)=O` (single isomer, unassigned) [Example 1025]: the figures for the IC50 in test [1] (setting [5]) and in test [2] (16 h incubation) were 0.411 nM and 141 nM, respectively.

For `O=C1NS(=O)(=O)[C@@H]2CCC[C@@H]2C/C=C/[C@H](O)[C@@H]2CC[C@H]2CN2C[C@@]3(CCCc4cc(Cl)ccc43)COc3ccc1cc32` (single isomer, unassigned) [Example 323], the IC50 in test [1] (setting [5]) was determined as 2.02 nM; in test [2] (setting [4]) it was 2980 nM.

Consider `COCCO[C@H]1/C=C/C[C@@H](C)CS(=O)(=O)NC(=O)c2ccc3c(c2)N(C[C@@H]2CC[C@H]21)C[C@@]1(CCCc2cc(Cl)ccc21)CO3` (single isomer, unassigned) [Example 375], for which the IC50 in test [1] (setting [5]) turned out to be 7.73 nM; in test [2] (16 h) it was 5700 nM.

For `CN(C)S(=O)(=O)N1CCN(C(=O)CC[C@@H]2CC/C=C/[C@H](O)[C@@H]3CC[C@H]3CN3C[C@@]4(CCCc5cc(Cl)ccc54)COc4ccc(cc43)C(=O)NS2(=O)=O)CC1` (single isomer, unassigned) [Example 626], the half-inhibitory concentration (IC50) was 0.305 nM in test [1] (setting [3]) and 2200 nM in test [2] (16 h).

For the molecule `COc1ccc(CN2[C@@H](C)C/C=C\[C@H](O)[C@@H]3CC[C@H]3CN3C[C@@]4(CCCc5cc(Cl)ccc54)COc4ccc(cc43)C(=O)NS2(=O)=O)cc1` (single isomer, unassigned) [Example 81], the IC50 in test [1] (setting [5]) stood at 38.5 nM; in test [2] (setting [4]), 6440 nM.

As to `C[C@@H]1[C@@H](C)C/C=C/[C@H](OCCN2CCC2=O)[C@@H]2CC[C@H]2CN2C[C@@]3(CCCc4cc(Cl)ccc43)COc3ccc(cc32)C(=O)NS1(=O)=O` [Example 731, (1S,3′R,6′R,7′S,8′E,11′S,12′R)-6-chloro-11′,12′-dimethyl-7′-(2-(2-oxo-1-azetedinyl)ethoxy)-3,4-dihydro-2H,15′H-spiro[naphthalene-1,22′-[20]oxa[13]thia[1,14]diazatetracyclo[14.7.2.0^3,6.0^19,24]pentacosa [8,16,18,24]tetraen]-15′-one-13′, 13′-dioxide], the IC50 was found to be 0.301 nM in test [1] (setting [3]) and 117 nM in test [2] (setting [4]).

Take `CC(C)OC(=O)C[C@@H]1[C@@H](C)C/C=C\[C@H](O)[C@@H]2CC[C@H]2CN2C[C@@]3(CCCc4cc(Cl)ccc43)COc3ccc(cc32)C(=O)NS1(=O)=O` [Example 568]: the IC50 in test [1] (setting [3]) stood at 1.1 nM; in test [2] (16 h), 1310 nM.

As for `O=C(O)CCN1CC/C=C/[C@H](O)[C@@H]2CC[C@H]2CN2C[C@@]3(CCCc4cc(Cl)ccc43)COc3ccc(cc32)C(=O)NS1(=O)=O` [Example 33, 3-((1S,3′R,6′R,7′S,8′E)-6-chloro-7′-hydroxy-13′,13′-dioxido-15′-oxo-3,4-dihydro-2H,12′H-spiro[naphthalene-1,22′-[20]oxa[13]thia[1,12,14]triazatetracyclo[14.7.2.0^3,6.0^19,24]pentacosa[8,16,18,24]tetraen]-12′-yl)propanoic Acid], the half-inhibitory concentration (IC50) is 0.168 nM in test [1] (setting [5]) and 8160 nM in test [2] (setting [4]).

Regarding `CC1CC(C)CS(=O)(=O)NC(=O)c2ccc3c(c2)N(CC2CCC2C(O)C1)CC1(CCCc2cc(Cl)ccc21)CO3` (single isomer, unassigned) [Example 272], the results for the IC50 in test [1] (setting [5]) and in test [2] (16 h) were 0.396 nM and 1190 nM, respectively.

In the case of `C[C@@H]1[C@@H](C)C/C=C/[C@H](OCCN2CCN(S(C)(=O)=O)CC2)[C@@H]2CC[C@H]2CN2C[C@@]3(CCCc4cc(Cl)ccc43)COc3ccc(cc32)C(=O)NS1(=O)=O` [Example 734], the IC50 in test [1] (setting [3]) is 1.12 nM; in test [2] (setting [4]), 134 nM.

As for `CCN1[C@H](C)C/C=C\[C@H](O)[C@@H]2CC[C@H]2CN2C[C@@]3(CCCc4cc(Cl)ccc43)COc3ccc(cc32)C(=O)NS1(=O)=O` (single isomer, unassigned) [Example 60], the IC50 in test [1] (setting [5]) turned out to be 4.08 nM; in test [2] (16 h), 2690 nM.

With `CC[C@@H]1CC/C=C/[C@H](OCCC(=O)N(C)C)[C@@H]2CC[C@H]2CN2C[C@@]3(CCCc4cc(Cl)ccc43)COc3ccc(cc32)C(=O)NS1(=O)=O` [Example 1010, 3-(((1S,3′R,6′R,7′S,8′E,12′R)-6-chloro-12′-ethyl-13′,13′-dioxido-15′-oxo-3,4-dihydro-2H-spiro[naphthalene-1,22′-[20]oxa[13]thia[1,14]diazatetracyclo[14.7.2.0^3,6.0^19,24]pentacosa [8,16,18,24]tetraen]-7′-yl)oxy)-N,N-dimethylpropanamide], the IC50 in test [1] (setting [5]) came to 0.377 nM; in test [2] (setting [6]) it was 298 nM.

Turning to `CO[C@H]1/C=C\CC[C@@H](C[C@@H](C)O)S(=O)(=O)NC(=O)c2ccc3c(c2)N(C[C@@H]2CC[C@H]21)C[C@@]1(CCCc2cc(Cl)ccc21)CO3` (single isomer, unassigned) [Example 543], the IC50 in test [1] (setting [3]) was determined as 0.535 nM; in test [2] (16 h), 699 nM.

What is called IC50 is the concentration at which inhibition is half-maximal.
